Experimental data taken from ChEMBL document CHEMBL1201861, “Genomics of Drug Sensitity in Cancer screening data, Wellcome Trust Sanger Institute”.

Legend:
Test in all cases: cells
Conditions in all cases: Homo sapiens
HAL-01 = assay type: functional, cell-based
Description: SANGER: Inhibition of human HAL-01 cell growth in a cell viability assay.

LS-411N = assay type: functional, cell-based
SJSA-1 = assay type: functional, cell-based
Description: SANGER: Inhibition of human SJSA-1 cell growth in a cell viability assay.

NB6 = assay type: functional, cell-based
Description: SANGER: Inhibition of human NB6 cell growth in a cell viability assay.

SCC-15 = assay type: functional, cell-based
Description: SANGER: Inhibition of human SCC-15 cell growth in a cell viability assay.

IST-SL1 = assay type: functional, cell-based
Description: SANGER: Inhibition of human IST-SL1 cell growth in a cell viability assay.

NCI-H1581 = assay type: functional, cell-based
Description: SANGER: Inhibition of human NCI-H1581 cell growth in a cell viability assay.

SW872 = assay type: functional, cell-based
Description: SANGER: Inhibition of human SW872 cell growth in a cell viability assay.

TE-1 = assay type: functional, cell-based
Description: SANGER: Inhibition of human TE-1 cell growth in a cell viability assay.

SNU-C2B = assay type: functional, cell-based
Description: SANGER: Inhibition of human SNU-C2B cell growth in a cell viability assay.

CAS-1 = assay type: functional, cell-based
Description: SANGER: Inhibition of human CAS-1 cell growth in a cell viability assay.

P30-OHK = assay type: functional, cell-based
Description: SANGER: Inhibition of human P30-OHK cell growth in a cell viability assay.

NCI-H209 = assay type: functional, cell-based
Description: SANGER: Inhibition of human NCI-H209 cell growth in a cell viability assay.

QIMR-WIL = assay type: functional, cell-based
Description: SANGER: Inhibition of human QIMR-WIL cell growth in a cell viability assay.

NCI-H720 = assay type: functional, cell-based
Description: SANGER: Inhibition of human NCI-H720 cell growth in a cell viability assay.

HCE-4 = assay type: functional, cell-based
Description: SANGER: Inhibition of human HCE-4 cell growth in a cell viability assay.

GI-ME-N = assay type: functional, cell-based
Description: SANGER: Inhibition of human GI-ME-N cell growth in a cell viability assay.

RS4-11 = assay type: functional, cell-based
Description: SANGER: Inhibition of human RS4-11 cell growth in a cell viability assay.

OVCAR-4 = assay type: functional, cell-based
Description: SANGER: Inhibition of human OVCAR-4 cell growth in a cell viability assay.

HCE-T = assay type: functional, cell-based
Description: SANGER: Inhibition of human HCE-T cell growth in a cell viability assay.

AM-38 = assay type: functional, cell-based
Description: SANGER: Inhibition of human AM-38 cell growth in a cell viability assay.

A4-Fuk = assay type: functional, cell-based
Description: SANGER: Inhibition of human A4-Fuk cell growth in a cell viability assay.

K5 = assay type: functional, cell-based
Description: SANGER: Inhibition of human K5 cell growth in a cell viability assay.

EOL1 = assay type: functional, cell-based
Description: SANGER: Inhibition of human EoL-1-cell cell growth in a cell viability assay.

MFH-ino = assay type: functional, cell-based
Description: SANGER: Inhibition of human MFH-ino cell growth in a cell viability assay.

EW-18 = assay type: functional, cell-based
Description: SANGER: Inhibition of human EW-18 cell growth in a cell viability assay.

SF-268 = assay type: functional, cell-based
Description: SANGER: Inhibition of human SF268 cell growth in a cell viability assay.

DJM-1 = assay type: functional, cell-based
Description: SANGER: Inhibition of human DJM-1 cell growth in a cell viability assay.

COLO-829 = assay type: functional, cell-based
Description: SANGER: Inhibition of human COLO-829 cell growth in a cell viability assay.

NB10 = assay type: functional, cell-based
Description: SANGER: Inhibition of human NB10 cell growth in a cell viability assay.

Lu-65 = assay type: functional, cell-based
Description: SANGER: Inhibition of human LU-65 cell growth in a cell viability assay.

MPP-89 = assay type: functional, cell-based
Description: SANGER: Inhibition of human MPP-89 cell growth in a cell viability assay.

NCI-H747 = assay type: functional, cell-based
Description: SANGER: Inhibition of human NCI-H747 cell growth in a cell viability assay.

LAN-6 = assay type: functional, cell-based
Description: SANGER: Inhibition of human LAN-6 cell growth in a cell viability assay.

HOP-62 = assay type: functional, cell-based
Description: SANGER: Inhibition of human HOP-62 cell growth in a cell viability assay.

COLO-320-HSR = assay type: functional, cell-based
Description: SANGER: Inhibition of human COLO-320-HSR cell growth in a cell viability assay.

PSN1 = assay type: functional, cell-based
Description: SANGER: Inhibition of human PSN1 cell growth in a cell viability assay.

NOS-1 = assay type: functional, cell-based
Description: SANGER: Inhibition of human NOS-1 cell growth in a cell viability assay.

NCI-H69 = assay type: functional, cell-based
Description: SANGER: Inhibition of human NCI-H69 cell growth in a cell viability assay.

LB2518-MEL = assay type: functional, cell-based
Description: SANGER: Inhibition of human LB2518-MEL cell growth in a cell viability assay.

RPMI-8866 = assay type: functional, cell-based
Description: SANGER: Inhibition of human RPMI-8866 cell growth in a cell viability assay.

LS-123 = assay type: functional, cell-based
Description: SANGER: Inhibition of human LS-123 cell growth in a cell viability assay.

HCC1187 = assay type: functional, cell-based
Description: SANGER: Inhibition of human HCC1187 cell growth in a cell viability assay.

SHP77 = assay type: functional, cell-based, SHP-77
Description: SANGER: Inhibition of human SHP-77 cell growth in a cell viability assay.

NKM-1 = assay type: functional, cell-based
Description: SANGER: Inhibition of human NKM-1 cell growth in a cell viability assay.

JVM-2 = assay type: functional, cell-based
Description: SANGER: Inhibition of human JVM-2 cell growth in a cell viability assay.

NMC-G1 = assay type: functional, cell-based
Description: SANGER: Inhibition of human NMC-G1 cell growth in a cell viability assay.

LS-1034 = assay type: functional, cell-based
Description: SANGER: Inhibition of human LS-1034 cell growth in a cell viability assay.

ACN = assay type: functional, cell-based
Description: SANGER: Inhibition of human ACN cell growth in a cell viability assay.

UACC-257 = assay type: functional, cell-based
Description: SANGER: Inhibition of human UACC-257 cell growth in a cell viability assay.

NCI-H526 = assay type: functional, cell-based
Description: SANGER: Inhibition of human NCI-H526 cell growth in a cell viability assay.

ES8 = assay type: functional, cell-based
Description: SANGER: Inhibition of human ES8 cell growth in a cell viability assay.

HH = assay type: functional, cell-based
Description: SANGER: Inhibition of human HH cell growth in a cell viability assay.

SK-MEL-2 = assay type: functional, cell-based
Description: SANGER: Inhibition of human SK-MEL-2 cell growth in a cell viability assay.

GCIY = assay type: functional, cell-based
Description: SANGER: Inhibition of human GCIY cell growth in a cell viability assay.

## CCNc1cc(N[C@H]2CC[C@@H](O)CC2)nc(Nc2ccc3c(ccn3Cc3ccccc3)c2)n1
HAL-01
  IC50: > 5.12 µM
LS-411N
  IC50: > 5.12 µM
SJSA-1
  IC50: > 5.12 µM
NB6
  IC50: > 5.12 µM
SCC-15
  IC50: > 5.12 µM
IST-SL1
  IC50: > 5.12 µM
NCI-H1581
  IC50: > 5.12 µM
SW872
  IC50: > 5.12 µM
TE-1
  IC50: > 5.12 µM
SNU-C2B
  IC50: > 5.12 µM
CAS-1
  IC50: > 5.12 µM
P30-OHK
  IC50: > 5.12 µM
NCI-H209
  IC50: > 5.12 µM
QIMR-WIL
  IC50: > 5.12 µM
NCI-H720
  IC50: > 5.12 µM
HCE-4
  IC50: > 5.12 µM
GI-ME-N
  IC50: > 5.12 µM
RS4-11
  IC50: 3.74 µM
OVCAR-4
  IC50: > 5.12 µM
HCE-T
  IC50: > 5.12 µM
AM-38
  IC50: > 5.12 µM
A4-Fuk
  IC50: > 5.12 µM
K5
  IC50: > 5.12 µM
EOL1
  IC50: > 5.12 µM
MFH-ino
  IC50: > 5.12 µM
EW-18
  IC50: > 5.12 µM
SF-268
  IC50: > 5.12 µM
DJM-1
  IC50: > 5.12 µM
COLO-829
  IC50: > 5.12 µM
NB10
  IC50: > 5.12 µM
Lu-65
  IC50: > 5.12 µM
MPP-89
  IC50: > 5.12 µM
NCI-H747
  IC50: > 5.12 µM
LAN-6
  IC50: > 5.12 µM
HOP-62
  IC50: > 5.12 µM
COLO-320-HSR
  IC50: > 5.12 µM
PSN1
  IC50: > 5.12 µM
NOS-1
  IC50: 3.26 µM
NCI-H69
  IC50: > 5.12 µM
LB2518-MEL
  IC50: > 5.12 µM
RPMI-8866
  IC50: > 5.12 µM
LS-123
  IC50: > 5.12 µM
HCC1187
  IC50: > 5.12 µM
SHP77
  IC50: > 5.12 µM
NKM-1
  IC50: > 5.12 µM
JVM-2
  IC50: > 5.12 µM
NMC-G1
  IC50: > 5.12 µM
LS-1034
  IC50: > 5.12 µM
ACN
  IC50: > 5.12 µM
UACC-257
  IC50: > 5.12 µM
NCI-H526
  IC50: > 5.12 µM
ES8
  IC50: > 5.12 µM
HH
  IC50: > 5.12 µM
SK-MEL-2
  IC50: > 5.12 µM
GCIY
  IC50: > 5.12 µM

## COc1cc(C)c(Sc2cnc(NC(=O)c3ccc(CNC(C)C(C)(C)C)cc3)s2)cc1C(=O)N1CCN(C(C)=O)CC1 (stereo not given)
HAL-01
  IC50: > 10.2 µM
LS-411N
  IC50: 4.34 µM
SJSA-1
  IC50: 7.63 µM
NB6
  IC50: > 10.2 µM
SCC-15
  IC50: > 10.2 µM
IST-SL1
  IC50: > 10.2 µM
NCI-H1581
  IC50: > 10.2 µM
SW872
  IC50: > 10.2 µM
TE-1
  IC50: > 10.2 µM
SNU-C2B
  IC50: 4.64 µM
CAS-1
  IC50: > 10.2 µM
P30-OHK
  IC50: > 10.2 µM
NCI-H209
  IC50: > 10.2 µM
QIMR-WIL
  IC50: 10.1 µM
NCI-H720
  IC50: > 10.2 µM
HCE-4
  IC50: > 10.2 µM
GI-ME-N
  IC50: 4.3 µM
RS4-11
  IC50: 5.79 µM
OVCAR-4
  IC50: 9.62 µM
HCE-T
  IC50: > 10.2 µM
AM-38
  IC50: > 10.2 µM
A4-Fuk
  IC50: 1.62 µM
K5
  IC50: > 10.2 µM
EOL1
  IC50: > 10.2 µM
MFH-ino
  IC50: 3.59 µM
EW-18
  IC50: > 10.2 µM
SF-268
  IC50: > 10.2 µM
DJM-1
  IC50: > 10.2 µM
COLO-829
  IC50: > 10.2 µM
NB10
  IC50: > 10.2 µM
Lu-65
  IC50: > 10.2 µM
MPP-89
  IC50: > 10.2 µM
NCI-H747
  IC50: 3.86 µM
LAN-6
  IC50: 7.29 µM
HOP-62
  IC50: > 10.2 µM
COLO-320-HSR
  IC50: > 10.2 µM
PSN1
  IC50: 2.51 µM
NOS-1
  IC50: 1.3 µM
NCI-H69
  IC50: > 10.2 µM
LB2518-MEL
  IC50: > 10.2 µM
RPMI-8866
  IC50: > 10.2 µM
LS-123
  IC50: > 10.2 µM
HCC1187
  IC50: > 10.2 µM
SHP77
  IC50: > 10.2 µM
NKM-1
  IC50: 10.1 µM
JVM-2
  IC50: > 10.2 µM
NMC-G1
  IC50: 7.16 µM
LS-1034
  IC50: 7.42 µM
ACN
  IC50: > 10.2 µM
UACC-257
  IC50: > 10.2 µM
NCI-H526
  IC50: > 10.2 µM
ES8
  IC50: > 10.2 µM
HH
  IC50: > 10.2 µM
SK-MEL-2
  IC50: > 10.2 µM
GCIY
  IC50: > 10.2 µM

## Cc1n[nH]c2ccc(-c3cncc(OC[C@@H](N)Cc4c[nH]c5ccccc45)c3)cc12 [A-443654]
HAL-01
  IC50: > 1.02 µM
LS-411N
  IC50: 0.0875 µM
SJSA-1
  IC50: 0.376 µM
NB6
  IC50: 0.48 µM
SCC-15
  IC50: > 1.02 µM
IST-SL1
  IC50: 0.434 µM
NCI-H1581
  IC50: 0.606 µM
SW872
  IC50: 0.255 µM
TE-1
  IC50: 0.111 µM
SNU-C2B
  IC50: 0.29 µM
CAS-1
  IC50: > 1.02 µM
P30-OHK
  IC50: > 1.02 µM
NCI-H209
  IC50: 0.246 µM
QIMR-WIL
  IC50: 0.256 µM
NCI-H720
  IC50: 0.154 µM
HCE-4
  IC50: 0.104 µM
GI-ME-N
  IC50: 0.278 µM
RS4-11
  IC50: 0.168 µM
OVCAR-4
  IC50: 0.243 µM
HCE-T
  IC50: 0.451 µM
AM-38
  IC50: > 1.02 µM
A4-Fuk
  IC50: 0.103 µM
K5
  IC50: 0.428 µM
EOL1
  IC50: 0.165 µM
MFH-ino
  IC50: 0.236 µM
EW-18
  IC50: > 1.02 µM
SF-268
  IC50: > 1.02 µM
DJM-1
  IC50: 0.331 µM
COLO-829
  IC50: > 1.02 µM
NB10
  IC50: > 1.02 µM
Lu-65
  IC50: > 1.02 µM
MPP-89
  IC50: 0.485 µM
NCI-H747
  IC50: 0.0825 µM
LAN-6
  IC50: 0.886 µM
HOP-62
  IC50: 0.14 µM
COLO-320-HSR
  IC50: 0.937 µM
PSN1
  IC50: 0.0473 µM
NOS-1
  IC50: 0.0938 µM
NCI-H69
  IC50: 0.318 µM
LB2518-MEL
  IC50: 0.397 µM
RPMI-8866
  IC50: > 1.02 µM
LS-123
  IC50: 0.337 µM
HCC1187
  IC50: > 1.02 µM
SHP77
  IC50: > 1.02 µM
NKM-1
  IC50: > 1.02 µM
JVM-2
  IC50: > 1.02 µM
NMC-G1
  IC50: 0.88 µM
LS-1034
  IC50: 0.63 µM
ACN
  IC50: 0.909 µM
UACC-257
  IC50: > 1.02 µM
NCI-H526
  IC50: > 1.02 µM
ES8
  IC50: 0.151 µM
HH
  IC50: 0.223 µM
SK-MEL-2
  IC50: 0.833 µM
GCIY
  IC50: 0.261 µM
